Values after ≈ are worked out from the molar mass of the structure shown.
Experiments:
[1] = test system: HCMV recombinant mutant virus (RV145); experiment: HCMV microtiter plate assay (beta-glucuronidase reporter); type: cell-based, Human Cytomegalovirus; settings: for IC50: Human betaherpesvirus 5, Fibroblast, read-out: IC50 (ug/ml) HCMV; for IC50 (ug/ml) HCMV: HCMV in human foreskin fibroblasts
Method in brief: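 Replication was read out as virus-encoded β-glucuronidase activity, measured with a chromogenic or fluorogenic glucuronide substrate in cell lysates at 96 h post-infection. Infection of human foreskin fibroblasts with RV145 took place with compound present. IC50 was derived from a range of inhibitor amounts.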

HSV-1 = experiment: HSV Antiviral (ELISA) assay; type: cell-based; settings: for IC50: Human alphaherpesvirus 1, HSV-1 in Vero cells, read-out: IC50 (ug/ml) HSV; for IC50 (ug/ml) HSV: HSV-1 in Vero cells
Protocol: Vero cells (ATCC #CCL-81) are plated on 96-well tissue culture plates at 3.5×10^4 cells per 100 μl tissue culture DMEM (Dulbecco's modified Eagle media) supplemented with 2% fetal bovine serum (FBS) in each well. After overnight incubation @ 37° C. (in 5% CO2) and 30 minutes prior to infection with HSV-1 (multiplicity of infection equal to 0.006), cells are either untreated, or treated with test compound (multiple concentrations) or reference standard drug control. After approximately 24 hours post-infection incubation @ 37° C. (in 5% CO2), cells are fixed for ELISA assay. The primary antibody is murine anti-HSV glycoprotein D monoclonal primary antibody and the secondary antibody is goat anti-mouse IgG linked to β-galactosidase. Thus the extent of viral replication is determined by assessing β-galactosidase activity by quantifying the generation of the 4-methyl umbelliferone fluorescent cleavage product after addition of the methyl umbelliferyl-β-D-galactoside (Sigma #M1633) substrate on a microfluorimeter (365 nm for excitation and 450 nm for emission). Antiviral activity (IC50) of the test compound is determined by comparing the flourescence obtained in absence of compound to that obtained in the presence of compound.

VZV strain Ellen = experiment: VZV Antiviral (ELISA) assay; type: cell-based; settings: for IC50: Human alphaherpesvirus 3, VZV strain Ellen in HFF cells, read-out: IC50 (ug/ml) VZV; for IC50 (ug/ml) VZV / % inhibition 10 ug/ml VZV: VZV strain Ellen in HFF cells; for % inhibition 10 ug/ml VZV: at 10 ug/ml
Protocol: For the generation of stock VZV to be used in the assay, VZV strain Ellen (ATCC #VR-1367) is used to infect human foreskin fibroblast (HFF) cells at low multiplicity (less than 0.1) and incubated overnight at 37° C. in 5% CO2. After the overnight incubation, the mixture of uninfected and VZV-infected HFF infected cells are then harvested and added to each well of 96-well plates (3.5×10^4 cells in 100 μl DMEM supplemented with 2% FBS) which contain test compound or the reference standard drug control (in 100 μl DMEM supplemented with 2% FBS per well). These cells are incubated for three days at 37° C. in 5% CO2, then fixed for ELISA assay. The primary antibody is murine anti-VZV glycoprotein II monoclonal antibody (Applied Biosystems, Inc. #13-145-100) and the secondary antibody is goat anti-mouse IgG linked to β-galactosidase. Thus the extent of viral replication is determined by assessing β-galactosidase activity by quantifying the generation of the 4-methyl umbelliferone fluorescent cleavage product after addition of the methyl umbelliferyl-β-D-galactoside (Sigma #M1633) substrate on a microfluorimeter (365 nm for excitation and 450 nm for emission). Antiviral activity (IC50) of the test compound is determined by comparing the flourescence obtained in absence of compound to that obtained in the presence of compound.

Row | Compound | IC50 [1] [µg/mL] | IC50 (HSV-1) [µg/mL] | IC50 (VZV strain Ellen) [µg/mL] | inhibition at 10 µg/mL (VZV strain Ellen; Human alphaherpesvirus 3, read-out: % inhibition 10 ug/ml VZV, at 10 ug/ml, VZV strain Ellen in HFF cells) [%] | IC50 (ug/ml) HCMV [1] [µg/mL] | IC50 (ug/ml) HSV (HSV-1) [µg/mL] | IC50 (ug/ml) VZV (VZV strain Ellen) [µg/mL] | % inhibition 10 ug/ml VZV (VZV strain Ellen) [%]
1 | O=C(Nc1ccc(NC(=O)c2csnn2)cc1)Nc1cc(Cl)cc(Cl)c1 [Example 86, [1,2,3]Thiadiazole-4-carboxylic acid {4-[3-(3,5-dichloro-phenyl)-ureido]-phenyl}-amide] | 0.04 (≈ 0.098 µM) | > 10 | > 10 | 32 | – | – | – | –
2 | O=C(Nc1ccc(NC(=O)c2ccco2)cc1)Nc1cc(C(F)(F)F)cc(C(F)(F)F)c1 [Example 88, Furan-2-carboxylic acid {4-[3-(3,5-bis-trifluoromethyl-phenyl)-ureido]-phenyl}-amide] | 0.013 (≈ 0.0284 µM) | > 10 | 0.03 (≈ 0.0656 µM) | – | – | – | – | –
3 | C[C@H](NC(=S)Nc1ccc(NC(=O)c2cscn2)nc1)c1cc(C(F)(F)F)cc(C(F)(F)F)c1 [Example 91] | – | – | – | – | 0.018 (≈ 0.0346 µM) | >10 | >10 | 6
4 | COc1cc(OC)c(NC(=S)Nc2ccc(NC(=O)c3ccc(C)s3)cc2)cc1Cl [Example 145] | – | – | – | – | >10 | 2 (≈ 4.33 µM) | >15 | 51
5 | COc1cc(OC)c(NC(=S)Nc2ccc(NC(=O)c3cccc4cccnc34)cc2)cc1Cl [Example 146] | – | – | – | – | >10 | >10 | >10 | 14
6 | COc1cc(OC)c(NC(=S)Nc2ccc(NC(=O)c3cccn3C)cc2)cc1Cl [Example 147] | – | – | – | – | >50 | 10 (≈ 22.5 µM) | >10 | 42
7 | COc1cc(OC)c(NC(=S)Nc2ccc(NC(=O)c3cc4ccccc4s3)cc2)cc1Cl [Example 153] | – | – | – | – | >10 | 2 (≈ 4.02 µM) | >10 | 8
8 | COc1cc(OC)c(NC(=S)Nc2ccc(NC(=O)c3cc4ccccc4o3)cc2)cc1Cl [Example 154] | – | – | – | – | 10 (≈ 20.7 µM) | 4 (≈ 8.3 µM) | >10 | 23
9 | COc1cc(OC)c(NC(=S)Nc2ccc(NC(=O)c3ccncc3)cc2)cc1Cl [Example 155] | – | – | – | – | 5 (≈ 11.3 µM) | 5 (≈ 11.3 µM) | >10 | 22
10 | COc1cc(OC)c(NC(=S)Nc2ccc(NC(=O)c3nccc4ccccc34)cc2)cc1Cl [Example 158] | – | – | – | – | >10 | 4 (≈ 8.11 µM) | >15 | 52
11 | COc1cc(OC)c(NC(=S)Nc2ccc(NC(=O)c3ccc4ccccc4n3)cc2)cc1Cl [Example 159] | – | – | – | – | >10 | >10 | >10 | 62
12 | COc1cc(OC)c(NC(=S)Nc2ccc(NC(=O)c3cccnc3)cc2)cc1Cl [Example 160] | – | – | – | – | >10 | 2.5 (≈ 5.64 µM) | >10 | 27
13 | COc1cc(OC)c(NC(=S)Nc2ccc(NC(=O)c3ccc([N+](=O)[O-])o3)cc2)cc1Cl [Example 161] | – | – | – | – | >10 | 3 (≈ 6.29 µM) | 5 (≈ 10.5 µM) | 113
14 | COc1cc(OC)c(NC(=S)Nc2ccc(NC(=O)c3ccc(Cl)o3)cc2)cc1Cl [Example 163] | – | – | – | – | 7 (≈ 15 µM) | 3 (≈ 6.43 µM) | >10 | 30
15 | COc1cc(OC)c(NC(=S)Nc2ccc(NC(=O)c3ccoc3)cc2)cc1Cl [Example 166] | – | – | – | – | >10 | 9 (≈ 20.8 µM) | >10 | 30
16 | COc1cc(OC)c(NC(=S)Nc2ccc(NC(=O)c3occc3C)cc2)cc1Cl [Example 167] | – | – | – | – | 9 (≈ 20.2 µM) | 10 (≈ 22.4 µM) | 3.8 (≈ 8.52 µM) | 70
17 | COc1cc(OC)c(NC(=S)Nc2ccc(NC(=O)c3ccc(Br)o3)cc2)cc1Cl [Example 168] | – | – | – | – | 2.5 (≈ 4.89 µM) | 3 (≈ 5.87 µM) | >10 | –

Row | Compound | IC50 [1] [µg/mL] | IC50 (HSV-1) [µg/mL] | IC50 (VZV strain Ellen) [µg/mL] | inhibition at 10 µg/mL (VZV strain Ellen; Human alphaherpesvirus 3, read-out: % inhibition 10 ug/ml VZV, at 10 ug/ml, VZV strain Ellen in HFF cells) [%] | IC50 (ug/ml) HCMV [1] [µg/mL] | IC50 (ug/ml) HSV (HSV-1) [µg/mL] | IC50 (ug/ml) VZV (VZV strain Ellen) [µg/mL] | % inhibition 10 ug/ml VZV (VZV strain Ellen) [%]
18 | COc1cc(OC)c(NC(=S)Nc2ccc(NC(=O)c3cc(Br)co3)cc2)cc1Cl [Example 169] | – | – | – | – | 4 (≈ 7.83 µM) | 3 (≈ 5.87 µM) | >10 | 26
19 | COc1cc(OC)c(NC(=S)Nc2ccc(NC(=O)c3ccco3)cc2)cc1Cl [Example 170] | – | – | – | – | 0.2 (≈ 0.463 µM) | >10 | >10 | 32
20 | COc1cc(OC)c(NC(=S)Nc2ccc(NC(=O)c3cncc4ccccc34)cc2)cc1Cl [Example 172] | – | – | – | – | >10 | >10 | >10 | 25
21 | COc1cc(OC)c(NC(=S)Nc2ccc(NC(=O)c3csnn3)cc2)cc1Cl [Example 173] | – | – | – | – | 0.08 (≈ 0.178 µM) | >10 | >10 | 31
22 | O=C(Nc1ccc(NC(=S)NCc2ccc(Cl)c(Cl)c2)cc1)c1cscn1 [Example 745] | – | – | – | – | 0.0025 (≈ 0.00572 µM) | 9 (≈ 20.6 µM) | – | –
23 | O=C(Nc1ccc(NC(=S)NCc2cc(C(F)(F)F)ccc2F)cc1)c1cscn1 [Example 746] | – | – | – | – | 0.005 (≈ 0.011 µM) | >10 | – | –
24 | CC(C)(C)c1ccc(CNC(=S)Nc2ccc(NC(=O)c3cscn3)cc2)cc1 [Example 747] | – | – | – | – | 0.002 (≈ 0.00471 µM) | >10 | – | –
25 | O=C(Nc1ccc(NC(=S)Nc2ccccc2F)cc1)c1csnn1 [Example 748] | – | – | – | – | 0.28 (≈ 0.75 µM) | >10 | – | –
26 | O=C(Nc1ccc(NC(=S)NCCOc2cccc(I)c2)cc1)c1csnn1 [Example 750] | – | – | – | – | 0.01 (≈ 0.019 µM) | >10 | – | –
27 | O=C(Nc1ccc(NC(=S)NCCc2ccc(F)c(C(F)(F)F)c2)cc1)c1csnn1 [Example 764] | – | – | – | – | 0.004 (≈ 0.00852 µM) | >10 | – | –
28 | O=C(Nc1ccc(NC(=S)NCCc2cccc(C(F)(F)F)c2F)cc1)c1csnn1 [Example 766] | – | – | – | – | 0.006 (≈ 0.0128 µM) | >10 | – | –
29 | O=C(Nc1ccc(NC(=S)NCCc2cccc(I)c2)cc1)c1csnn1 [Example 768] | – | – | – | – | 0.005 (≈ 0.00982 µM) | >10 | – | –
30 | O=C(Nc1ccc(NC(=S)NCCc2ccc(F)cc2C(F)(F)F)cc1)c1csnn1 [Example 769] | – | – | – | – | 0.04 (≈ 0.0852 µM) | >10 | – | –
31 | O=C(Nc1ccc(NC(=S)NCCc2cccc(Br)c2)cc1)c1csnn1 [Example 770] | – | – | – | – | 0.006 (≈ 0.013 µM) | >10 | – | –
32 | O=C(Nc1ccc(NC(=S)Nc2ccccc2Cl)cc1)c1ccccc1F [Example 998, N-{4-[3-(2-Chloro-phenyl)-thioureido]-phenyl}-2-fluoro-benzamide] | 0.016 (≈ 0.04 µM) | > 10 | – | – | – | – | – | –
33 | COC(=O)c1cccc(NC(=S)Nc2ccc(NC(=O)c3ccccc3F)cc2)c1 [Example 1000, 3-{3-[4-(2-Fluoro-benzoylamino)-phenyl]-thioureido}-benzoic acid methyl ester] | 0.39 (≈ 0.921 µM) | > 10 | – | – | – | – | – | –
34 | NC(=O)c1cccc(NC(=S)Nc2ccc(NC(=O)c3ccccc3F)cc2)c1 [Example 1002, N-[4-[[[[3-(Aminocarbonyl)phenyl]-amino]thioxomethyl]amino]phenyl]-2-fluoro-benzamide] | 0.07 (≈ 0.171 µM) | > 10 | – | – | – | – | – | –
